In patent US8598122B2, “Antagonistic peptides for frizzled-1 and frizzled-2” (Universiteit Maastricht, priority 2009, dated 2013):
Entries after “also recorded” stand apart in the source; their conditions may differ. Where a SMILES comes first, the peptide text is derived from it.

Experiments:
hFzd-5 = molecular target: T1, hFzd-5 (Homo sapiens, UniProt Q13467); assay: Luciferase activity in HEK293 superTOPflash cells overexpressing hFzd-5; type: cell-based; conditions: 1.10^−8 M
T1 construct: expressed in transfected cells; host or cells: HEK293 superTOPflash, transient, pcDNA3.0
T1 sequence (Q13467 27-585): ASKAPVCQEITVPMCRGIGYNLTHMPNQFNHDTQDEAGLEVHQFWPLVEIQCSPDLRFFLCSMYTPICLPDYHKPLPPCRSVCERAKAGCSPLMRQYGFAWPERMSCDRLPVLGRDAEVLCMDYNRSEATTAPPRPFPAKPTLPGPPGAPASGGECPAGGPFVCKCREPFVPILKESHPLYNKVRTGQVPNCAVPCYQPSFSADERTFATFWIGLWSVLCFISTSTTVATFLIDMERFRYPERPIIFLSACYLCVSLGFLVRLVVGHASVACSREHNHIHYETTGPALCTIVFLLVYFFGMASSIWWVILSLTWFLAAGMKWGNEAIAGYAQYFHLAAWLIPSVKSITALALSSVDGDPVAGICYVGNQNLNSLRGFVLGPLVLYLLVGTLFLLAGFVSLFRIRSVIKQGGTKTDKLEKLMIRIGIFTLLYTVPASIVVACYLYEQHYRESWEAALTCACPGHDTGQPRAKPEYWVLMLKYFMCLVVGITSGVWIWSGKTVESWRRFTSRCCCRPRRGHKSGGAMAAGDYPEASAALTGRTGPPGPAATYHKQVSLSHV
Description: (§1) In FIG. 3, Panel E, the efficacy of UM206 to block the Wnt3a-induced activation of luciferase activity in HEK293 superTOPflash cells transfected with different Fzds is shown.
(§2) The cell lines were cultured in 75 cm^2 culture flasks (Corning, Schiphol, the Netherlands) in Dulbeco's modified essential medium with L-glutamine (2 mM), 10% fetal calf serum (Invitrogen, Merelbeke, Belgium), and 1% gentamycin (Sigma-Aldrich, Zwijndrecht, The Netherlands). Before starting the experiment, the cell lines were treated with plasmocin 25 μg/ml (Invivogen, Toulose, France) and tested with a mycoalert mycoplasma detection kit (Lonza, Rockland Me., USA). Cells were transiently transfected with Fugene6 (Roche, Indianapolis Ind., USA) with plasmid DNA, pcDNA3.1/hygro (Invitrogen) with frizzled-1/2/4 or Wnts 3a-5a or with pcDNA3.0 (Invitrogen) containing the β-catenin or frizzled-5 sequence. After transfection, the cells were cultured for 24 hours in conditioned medium, collected from the cultured L-cells, L-cells with Wnt3a or 5a (Invitrogen). At the same moment the antagonist was added.

frizzled-1 (rFzd-1) = molecular target: T2, frizzled-1 (rFzd-1) (Rattus norvegicus, UniProt Q08463); assay: Activity assay: Wnt3a-induced luciferase (superTOPflash) in HEK cells transfected with frizzled-1; type: cell-based; conditions: peptide 1.10^−8 M
T2 construct: expressed in transfected cells; host or cells: HEK293 superTOPflash (human embryonic kidney), transient, pcDNA3.1/hygro
T2 sequence (Q08463 69-641): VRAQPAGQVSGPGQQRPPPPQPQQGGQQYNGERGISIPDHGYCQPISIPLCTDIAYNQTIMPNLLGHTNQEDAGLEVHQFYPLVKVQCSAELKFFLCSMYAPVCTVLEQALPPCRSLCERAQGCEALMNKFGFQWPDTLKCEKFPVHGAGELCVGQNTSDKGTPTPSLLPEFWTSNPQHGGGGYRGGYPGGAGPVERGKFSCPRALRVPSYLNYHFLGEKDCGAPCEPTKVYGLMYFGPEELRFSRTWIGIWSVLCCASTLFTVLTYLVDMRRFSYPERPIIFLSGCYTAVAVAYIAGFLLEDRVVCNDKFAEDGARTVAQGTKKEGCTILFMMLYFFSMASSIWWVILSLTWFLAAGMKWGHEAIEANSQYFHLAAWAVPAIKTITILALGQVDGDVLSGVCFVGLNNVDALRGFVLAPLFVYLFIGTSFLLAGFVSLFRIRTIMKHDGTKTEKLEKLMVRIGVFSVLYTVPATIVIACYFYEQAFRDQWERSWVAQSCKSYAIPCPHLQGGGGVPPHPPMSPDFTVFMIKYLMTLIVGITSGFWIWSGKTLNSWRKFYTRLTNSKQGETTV
Description: Human embryonic kidney (HEK) cells were used for screening. These cells have a luciferase construct stably transfected into the genome (see FIG. 2A), such that when the frizzled receptor is activated and β-catenin is increased, the luciferase is activated by transcription and light can be measured.
The peptides were tested by transfecting the frizzled-1 or the frizzled-2 receptor and addition of UM206(S-S) to the cell culture. For testing antagonistic activity, UM206 was added and the natural ligand Wnt3a was added, which is a natural stimulus for the canonical pathway.
Day 2: Transfection 12-well plates • heat Fugene6 and DNA 15 minutes at RT • 2 ml serum-free medium in tube • add 3μl fugene • add 2 μg DNA • incubate 30 minutes at RT • wash with PBS • add 50 μtransfectiemix • add 1 ml antibiotica-free medium
Day 3: Add conditioned medium or UM206
Day 4: Luciferase activity measurements • remove medium • wash with PBS • add 500 μl ⅕ lysisbuffer • shake for 60 minutes • centrifuge in tube • 20 μl lysaat and 50 μl luciferase in new tube for measurement • vortex • measure
To determine the inhibitory constant of UM206-8, HEK293-superTOPflash cells were transfected with either rFzd-1 or -2 and incubated with Wnt3a (10^−9M) in the presence of increasing concentrations of either of the peptides (FIG. 15). For UM206, a biphasic inhibition curve was observed that was best fitted with a two-binding-state model.
as §2

mouse Fzd-2 = molecular target: T3, mouse Fzd-2 (Mus musculus, UniProt Q9JIP6); assay: Antagonism of Wnt3a activation of mouse Fzd-2 (data not shown); type: cell-based
T3 construct: expressed in transfected cells
T3 sequence (Q9JIP6 29-570): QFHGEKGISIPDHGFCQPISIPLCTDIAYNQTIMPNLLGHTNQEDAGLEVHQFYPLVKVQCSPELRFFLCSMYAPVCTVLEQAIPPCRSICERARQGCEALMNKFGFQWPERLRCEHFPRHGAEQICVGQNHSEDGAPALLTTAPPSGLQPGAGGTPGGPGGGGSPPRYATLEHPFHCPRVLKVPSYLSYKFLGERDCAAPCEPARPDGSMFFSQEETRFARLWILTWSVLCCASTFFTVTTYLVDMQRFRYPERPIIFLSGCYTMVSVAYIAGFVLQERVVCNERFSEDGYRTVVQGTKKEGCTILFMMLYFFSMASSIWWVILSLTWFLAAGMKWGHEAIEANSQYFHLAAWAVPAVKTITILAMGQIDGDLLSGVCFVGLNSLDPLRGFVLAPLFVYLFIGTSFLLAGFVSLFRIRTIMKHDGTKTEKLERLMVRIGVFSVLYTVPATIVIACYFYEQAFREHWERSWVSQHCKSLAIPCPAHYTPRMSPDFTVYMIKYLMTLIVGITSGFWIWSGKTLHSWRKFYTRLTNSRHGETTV
Source text: as §1

[1] = tested on: mice with myocardial infarction; assay: Myocardial infarction model in mice, UM206 by osmotic minipump; type: in vivo
Description: All animals were subjected to extensive echocardiography studies for the assessment of myocardial infarct size, LV cavity dimensions and ventricular function. Echocardiography examination was performed under 2% isofluorane. Echocardiograms were recorded with Philips Sonos 5500 ultrasound system (Philips, Eindhoven, the Netherlands) using a 20-MHz linear probe.
The animals were anaesthetized with urethane ([…] body weight, i.p., Sigma-Aldrich) followed by intubation and connected to a rodent ventilator (Hugo Sachs, March-Hugstetten, Germany). Body temperature was maintained at 37° C. The mice were then allowed to stabilize prior to hemodynamic measurements. A high-fidelity catheter tip micromanometer (Mikro-tip1.4F, SPR-671; Millar Instruments, Houston TX, USA) was inserted through the right carotid artery into the left ventricular cavity. Ventricular pressure was measured. Maximal positive and negative pressure development (+dP/dt and −dP/dt) and heart rate were determined on a beat-to-beat basis. The heart was then stimulated by an i.v. ramp-infusion of dobutamine (Sigma-Aldrich) using a micro-injection pump (Model 200 Series, KdScientific, Boston, Mass., USA).
One-half of the hearts of the mice was embedded in paraffin and cut in 4 μm sections. The paraffin sections were rehydrated and washed in PBS. One section was stained with AZAN, allowing an accurate determination of the infarct size. To visualize the myofibroblasts in the infarct area, the sections were incubated with an antibody directed against a-smooth muscle actin (Sigma-Aldrich), followed by incubation with the peroxidase-conjugated secondary antibody (Vector laboratories). Nuclei were visualized by hematoxylin. Photos were taken with a Leica (CTR500, 63x/0.85) camera and analyzed with the Quantimet program (QWin/QGo). An examiner blinded to the groups of the animals obtained all measurements. For the experiments with Rhodamine-labeled UM206, frozen sections (4 μm) of mouse kidney and small intestine were used.

[2] = five weeks treatment, vs saline

CSCC[C@H](NC(=O)CNC(=O)[C@H](CCC(=O)O)NC(=O)[C@H](CO)NC(=O)[C@@H](NC(=O)[C@H](CCCCN)NC(=O)[C@H](CC(N)=O)NC(=O)[C@H](CS)NC(C)=O)[C@@H](C)O)C(=O)N[C@@H](CC(=O)O)C(=O)NCC(=O)N[C@@H](CS)C(=O)N[C@@H](CCC(=O)O)C(=O)N[C@@H](CC(C)C)C(N)=O [UM206, Ac-Cys-Asn-Lys-Thr-Ser-Glu-Gly-Met-Asp-Gly-Cys-Glu-Leu-NH2] (Ac-CNKTSEGMDGCEL-NH2)
Effect on Wnt3a-induced luciferase activity, frizzled-5 (hFzd-5): no effect | Blocking of Wnt3a-induced luciferase activity, rFzd-1 (frizzled-1 (rFzd-1)): blocked almost completely; also recorded: abolished the induction of luciferase activity almost completely | Antagonizing activation of mouse Fzd-2 by Wnt3a (mouse Fzd-2): fully effective | tangents on the pressure time curve (dP/dt) ([1]; Millar catheter in left ventricle, vs saline): significantly steeper | change of ejection fraction (echocardiography) ([1]; UM206-treated vs saline): doubling | reduction in end diastolic volume of the left ventricle ([1]; UM206-treated vs saline): 40% | AoD ([1]; echocardiography, AVG): 0.18 cm | EDV_L ([1]; echocardiography, AVG): 0.132 cm^3 | EF_L ([1]; echocardiography, AVG): 31.4% | ESV_L ([1]; echocardiography, AVG): 0.090 cm^3 | FS ([1]; echocardiography, AVG): 13.20% | IVS anterior ([1]; echocardiography, AVG): 8.10% | IVSd anterior wall ([1]; echocardiography, AVG): 0.07 cm | IVSd posterior wall ([1]; echocardiography, AVG): 0.09 cm | IVSs anterior wall ([1]; echocardiography, AVG): 0.07 cm | IVSs posterior wall ([1]; echocardiography, AVG): 0.14 cm | LVAs ([1]; echocardiography, AVG): 0.30 cm^2 | LVIDd ([1]; echocardiography, AVG): 0.59 cm | LVIDs ([1]; echocardiography, AVG): 0.52 cm | SV_L ([1]; echocardiography, AVG): 0.041 cm^3 | LVLd ([1]; echocardiography, AVG, first listing (r8)): 0.91 cm | LVLs ([1]; echocardiography, AVG, first listing (r10)): 0.86 cm | LVLd ([1]; echocardiography, AVG, second listing (r12)): 0.95 cm | LVLs ([1]; echocardiography, AVG, second listing (r13)): 0.89 cm | LVAd ([1]; echocardiography, mice post-MI, AVG): 0.38 cm^2 | mortality / survival after MI ([1]; five weeks after MI, 6 microgram/kg/day minipump, saline 35% died): not a single mouse had died; also recorded: completely prevented the mortality | wet lung weight of surviving saline-treated mice higher than in UM206-treated mice ([1]; five weeks post-MI): 40% | blood vessels in the infarct area [1, 2]: increased amount of blood vessels | collagen levels in the infarct area [1, 2]: reduced collagen levels | a-SMA levels in infarcts (qPCR, Western blotting) ([1]; five-week-old infarcts, vs saline): significantly higher | Diastolic pressure ([1]; hemodynamic measurements, AVG): 1.27 mmHg | Left ventricular pressure ([1]; hemodynamic measurements, AVG): 10.14 mmHg | Maximum negative slope ([1]; hemodynamic measurements, AVG): −2542.08 mmHg/sec | Maximum negative slope/pressure ([1]; hemodynamic measurements, AVG): 32.84 s⁻¹ | Maximum positive slope ([1]; hemodynamic measurements, AVG): 5343.84 mmHg/sec | Maximum positive slope/pressure ([1]; hemodynamic measurements, AVG): 69.13 s⁻¹ | Pressure of negative slope ([1]; hemodynamic measurements, AVG): −9.44 mmHg | Pressure of positive slope ([1]; hemodynamic measurements, AVG): 17.78 mmHg | Systolic pressure ([1]; hemodynamic measurements, AVG): 27.93 mmHg | Heart rate ([1]; hemodynamic measurements, mean of 26 animals): 106.32 beats/min | amount of myofibroblasts ([1]; in vivo model of myocardial infarction, in comparison to 4%): 20% | adverse effects of chronic administration ([1]; mouse, in vivo): did not observe any adverse effects | effects on other organs known to contain Fzd-2, including kidney and small intestine ([1]; mouse, in vivo): did not observe any effects | myofibroblast numbers in the infarct area relative to saline-treated mice ([1]; two weeks post-MI): more than four-fold; also recorded: four-fold | infarct area size ([1]; vs saline-treated mice, 2 and 5 weeks after MI): significantly smaller | thickness of the infarct area ([1]; vs saline, both time points): significantly thicker
